One series deals with Bibionidae. The conditions noted are these: chronic/long-term; duration: 28 days.
A further series relates to Canidae. The conditions noted are these: chronic, oral, Dog Other, clinical signs.
A further series deals with Daphnia magna. The conditions noted are these: chronic/long-term; duration: 21 days; reproduction.
In another series the test system is Poecilus cupreus. In words: LR50; higher = less toxic. The conditions noted are these: not reported; mortality.

For `CC[C@H](C)[C@H]1O[C@]2(C=C[C@@H]1C)C[C@@H]1C[C@@H](C/C=C(\C)[C@@H](O[C@H]3C[C@H](OC)[C@@H](O[C@H]4C[C@H](OC)[C@@H](O)[C@H](C)O4)[C@H](C)O3)[C@@H](C)/C=C/C=C3\CO[C@@H]4[C@H](O)C(C)=C[C@@H](C(=O)O1)[C@]34O)O2.CO[C@H]1C[C@H](O[C@H]2[C@H](C)O[C@@H](O[C@@H]3/C(C)=C/C[C@@H]4C[C@@H](C[C@]5(C=C[C@H](C)[C@@H](C(C)C)O5)O4)OC(=O)[C@@H]4C=C(C)[C@@H](O)[C@H]5OC/C(=C\C=C\[C@@H]3C)[C@]54O)C[C@@H]2OC)O[C@@H](C)[C@@H]1O` [Abamectin], the LD50 is at most 77 mg/kg-day in the series with Anas platyrhynchos (acute, oral, unspecified, mortality); 0.0036 mg/L with Oncorhynchus mykiss (acute, duration: 96 hours, mortality); 8.7 mg/kg with Rattus norvegicus (acute, mortality). Moreover, the NOEC in the series on Anas platyrhynchos (chronic/long-term, M) is 1.33 mg/kg-day; in the series with Bibionidae, 8.1e-05 mg/L; with Daphnia magna, 1e-05 mg/L; with Oncorhynchus mykiss (chronic/long-term, duration: 28 days), 0.00052 mg/L; with Rattus norvegicus (chronic, oral), 0.12 mg/kg-day; with Tagia sp. (not reported), at least 0.72 mg/kg. Also, the LC50 with Anas platyrhynchos (short-term, oral, feed, mortality) turned out to be 48.6 mg/kg-day; with Tagia sp. (acute, duration: 14 days, mortality), 33 mg/kg. Further, the no-observed-adverse-effect level (NOAEL) was found to be 0.25 mg/kg-day in the series with Canidae (duration: 18 weeks); 0.25 mg/kg-day in the series with Canidae (duration: 53 weeks); 0.5 mg/kg-day in the series with Rattus norvegicus (acute, clinical signs). Moreover, the LR50 with Poecilus cupreus was over 58 g/ha.

As a reminder, the NOAEL is the highest tested level that showed no adverse finding.

For the origin of these results see EPA's ToxValDB 9.5 (doi:10.2903/j.efsa.2016.4491).
